Reference: patent publication US9945862B2, “Biomarkers for predicting and assessing responsiveness of thyroid and kidney cancer subjects to lenvatinib compounds” (Eisai R&D Management Co., Ltd., priority 2011, dated 2018)
Entries after “also recorded” stand apart in the source; their conditions may differ.

Assays:
[1] = test system: thyroglobulin; experiment: Serum thyroglobulin, chemiluminescent immunometric assay (IMMULITE 2000), pre- and post-treatment with E7080; format: in vivo, human
Procedure: The serum for the thyroglobulin assays was collected within 72 hours prior to Day 1 of all cycles. 24 mg of E7080 was administered orally, daily continuously in 28-day cycles. Serum samples from 58 patients were used for thyroglobulin measurements. 6 mL of blood was drawn into red top tubes and let to clot at room temperature for at least 30 min. Within 60 minutes of sample collection, the tubes were centrifuged for 15 minutes at 20-25° C. at 1000×g. The supernatant was drawn without disturbing the pellet, put into sample tubes with serum filter and shipped frozen to the central lab for testing on the day of collection. The level of thyroglobulin was detected by a solid-phase, chemiluminescent immunometric assay (IMMULITE 2000 Thyroglobulin Assay System, Siemens) following standard operating procedure. In brief, serum thyroglobulin was captured by beads coated with anti-thyroglobulin antibody and detected using anti-thyroglobulin antibody linked to alkaline phosphatase. The level of serum thyroglobulin was calculated from a standard curve generated with lyophilized thyroglobulin. Serum thyroglobulin was stable for up to 2 months when stored frozen for the assay. The sensitivity of this assay was 0.2 ng/ml. From 58 patient samples, 50 pre- and post-treatment blood samples at maximum were used for these analyses. Dramatic changes in thyroglobulin levels were observed 29 days after the start of treatment with E7080.

[2] = test system: differentiated thyroid cancer patients; experiment: Progression free survival of E7080-treated DTC patients (Logrank test, Cox proportional hazards model with or without PK covariate); format: in vivo, human; conditions: patients with mutations in NRAS alone or in either NRAS or KRAS vs wild type for NRAS or KRAS
Procedure: The period during which a patient takes E7080 was artificially divided into different Cycles for ease of evaluation and tracking. Patients received E7080 at a dose of 24 mg oral once daily in 28 day cycles. For analysis purposes, assessments of clinical outcomes were performed at the time of the 9 month and at 14 month minimum follow-up. For the E7080 Thyroid Cancer trial, each Cycle is 28 days (4 weeks) so Day 1-28 is cycle 1; Day 29 is Day 1 of Cycle 2; and Day 57 is Day 1 of Cycle 3. Blood samples were collected for pharmacokinetic (PK) analysis on Cycle 1 Days 1 and 8, Cycle 2 Day 1, and Cycle 3 Day 1. A total of 9 samples per patient were collected as follows: Cycle 1 Day 1: immediately prior to the dose of E7080, and at 0.5 and 2 hours following the first dose of E7080 (post-dose); Cycle 1 Day 8: immediately prior to the dose of E7080; Cycle 2 Day 1: immediately prior to the dose of E7080, 0.5 and 2 hours post-dose; Cycle 3 Day 1: immediately prior to the dose of E7080 and 2 hours post-dose. For analysis of progression free survival, PK parameter was used as a covariate in Cox proportional hazards model. […]
The association of gene mutations with progression free survival of treated patients was analyzed first by performing Logrank test and then using Cox proportional hazards model with or without covariates. […]

[3] = test system: thyroid, kidney and endometrial cancers, as well as melanoma; conditions: phase I; cited from earlier work

SMILES: COc1cc2nccc(Oc3ccc(NC(=O)NC4CC4)c(Cl)c3)c2cc1C(N)=O [E7080, 4-(3-chloro-4-(cyclopropylaminocarbonyl)aminophenoxy)-7-methoxy-6-quinolinecarboxamide]
- Thyroglobulin level ratio (median), Other group (SD or PD) ([1]; CYCLE2 DAY 1/CYCLE1 DAY 1): 0.288
- Thyroglobulin level ratio (median), PR group ([1]; CYCLE2 DAY 1/CYCLE1 DAY 1): 0.195
- Thyroglobulin level ratio (median), Other group (SD or PD) ([1]; CYCLE3 DAY 1/CYCLE1 DAY 1): 0.221
- Thyroglobulin level ratio (median), PR group ([1]; CYCLE3 DAY 1/CYCLE1 DAY 1): 0.109
- Thyroglobulin level ratio (median), Other group (SD or PD) ([1]; CYCLE4 DAY 1/CYCLE1 DAY 1): 0.227
- Thyroglobulin level ratio (median), PR group ([1]; CYCLE4 DAY 1/CYCLE1 DAY 1): 0.079
- Thyroglobulin level ratio (median), Other group (SD or PD) ([1]; CYCLE5 DAY 1/CYCLE1 DAY 1): 0.332
- Thyroglobulin level ratio (median), PR group ([1]; CYCLE5 DAY 1/CYCLE1 DAY 1): 0.106
- Thyroglobulin level ratio (median), Other group (SD or PD) ([1]; CYCLE6 DAY 1/CYCLE1 DAY 1): 0.198
- Thyroglobulin level ratio (median), PR group ([1]; CYCLE6 DAY 1/CYCLE1 DAY 1): 0.078
- Progression free survival, Logrank test [2]: better progression free survival; also recorded: better PFS
- Clinical response [3]: response to treatment was observed
